Reference: US9642808B2, “Extended release compositions comprising mycophenolate sodium and processes thereof” (PANACEA BIOTECH LIMITED, priority 2007, dated 2017)
Read-outs that look alike come from different tables or passages of the source.

Experiments:
[1] = 423 de novo kidney allograft recipients; cited from earlier work
[2] = cited from earlier work
[3] = pH-dependent solubility of the drug; format: physicochemical
From the text: The present invention provides a stable extended release single unit dosage form composition such as matrix tablets which could provide substantially linear drug release for a prolonged duration of time during the transit through varying pHs of the GIT.
The prior art formulation approaches lead to a pharmaceutical composition which has a suitable fast disintegration time but not necessarily a suitable dissolution rate of the active agent under acidic conditions, i.e. a multiparticulate composition in the form of a tablet with an extragranularly added disintegrant will rapidly disintegrate into granules but the dissolution of the drug substance from the composition and/or the disintegrated composition under acidic conditions may be unsuitable and, low due to the solubility properties of the active agent itself. The availability of an active agent with respect to absorption, i.e. entrance into the circulatory system, is dependant on the presence of the active agent in dissolved form as it is generally accepted that only dissolved substances are capable of passing the mucous membranes in the gastro-intestinal tract. Therefore, it is important that the dissolution of the active agent is suitably fast even under acidic conditions in order to enable absorption from the stomach so that the absorption of the active agent is continuous throughout the GIT, and the bioavailability is not compromised.

[4] = controlled de novo and maintenance renal studies

| solubility ([3]; pH above 6.0) | solubility ([3]; pH below 6.0) | solubility in an acidic medium ([3]; pH of from about 1 to about 3) | SMILES | incidence of GI adverse events [1] | Adverse Events (%): Anemia [2, 4] | Adverse Events (%): CMV infections [2, 4] | Adverse Events (%): Constipation [2, 4] | Adverse Events (%): Diarrhoea [2, 4] | Adverse Events (%): Dyspepsia [2, 4] | Adverse Events (%): Insomnia [2, 4] | Adverse Events (%): Leukopenia [2, 4] | Adverse Events (%): Nausea [2, 4] | Adverse Events (%): Urinary Tract Infection [2, 4] | Adverse Events (%): Vomiting [2, 4] | Adverse Events (%): CMV infections ([2]; in vivo) |
| --- | --- | --- | --- | --- | --- | --- | --- | --- | --- | --- | --- | --- | --- | --- | --- |
|  |  |  | COc1c(C)c2c(c(O)c1C/C=C(\C)CCC(=O)OCCN1CCOCC1)C(=O)OC2 [MMF, mycophenolate mofetil] | 77.1% | 21.6% | 20.2% | 38.0% | 24.8% | 22.5% | 23.5% | 19.2% | 29.1% | 29.1% | 20% |  |
| high solubility | poor solubility | substantially low solubility | COc1c(C)c2c(c(O)c1C/C=C(\C)CCC(=O)O)C(=O)OC2 [MPS, mycophenolate sodium] | 79.8% | 21.9% |  | 39.5% | 23.5% | 19% | 23.8% | 20.5% | 27.1% | 33.3% | 23% | 18.1% |
